For this assay, the system named is BDF1 mice, P388 leukemia ip, median survival T/C. Nature of the assay: NCI In Vivo Anticancer Drug Screen. Data for tumor model P388 Leukemia (intraperitoneal) in B6D2F1 (BDF1) mice. Conditions: endpoint: median survival time, higher = longer survival. An outline of the steps: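 Each value expresses how treatment altered survival: treated-mouse outcome over vehicle-mouse outcome, both groups bearing the transplanted tumour.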

[1] abbreviates: dose: 50.0 mg/kg/injection, schedule: Q04DX003 (ip), vehicle: saline with Tween-80.
Setting [2] is: dose: 100.0 mg/kg/injection, schedule: Q04DX003 (ip), vehicle: saline with Tween-80.
Setting [3] is: dose: 200.0 mg/kg/injection, schedule: Q04DX003 (ip), vehicle: saline with Tween-80.
[4] abbreviates: dose: 50.0 mg/kg/injection, schedule: Q01DX009 (ip), vehicle: saline with Tween-80.
Setting [5] is: dose: 100.0 mg/kg/injection, schedule: Q01DX009 (ip), vehicle: saline with Tween-80.
The mark [6] stands for this setting: dose: 200.0 mg/kg/injection, schedule: Q01DX009 (ip), vehicle: saline with Tween-80.
Setting [7] is: dose: 100.0 mg/kg/injection, schedule: Q01DX001 (ip), vehicle: saline with Tween-80.
Setting [8] is: dose: 200.0 mg/kg/injection, schedule: Q01DX001 (ip), vehicle: saline with Tween-80.
Where [9] appears, read: dose: 6.25 mg/kg/injection, schedule: Q01DX009 (ip), vehicle: saline.
Setting [10] is: dose: 12.5 mg/kg/injection, schedule: Q01DX009 (ip), vehicle: saline.
Where [11] appears, read: dose: 25.0 mg/kg/injection, schedule: Q01DX009 (ip), vehicle: saline.
Setting [12] is: dose: 100.0 mg/kg/injection, schedule: Q01DX009 (ip), vehicle: Klucel (hydroxypropylcellulose) (HPC).
Where [13] appears, read: dose: 100.0 mg/kg/injection, schedule: Q04DX003 (ip), vehicle: Klucel (hydroxypropylcellulose) (HPC).
The mark [14] stands for this setting: dose: 200.0 mg/kg/injection, schedule: Q01DX009 (ip), vehicle: Klucel (hydroxypropylcellulose) (HPC).
Where [15] appears, read: dose: 200.0 mg/kg/injection, schedule: Q04DX003 (ip), vehicle: Klucel (hydroxypropylcellulose) (HPC).
The mark [16] stands for this setting: dose: 400.0 mg/kg/injection, schedule: Q04DX003 (ip), vehicle: Klucel (hydroxypropylcellulose) (HPC).
Where [17] appears, read: dose: 400.0 mg/kg/injection, schedule: Q04DX003 (ip), vehicle: saline with Tween-80.

Several values for one entry are separate records, joined by “and”; a condition that tells them apart may be missing. Equal values may be shown once. Toxic doses and inconclusive results are not listed. Non-standard residues stand in square brackets, D forms with d. Residues, ends and D or L forms follow the SMILES beside them. ξ: configuration not given here. *: point of attachment. ξF = NC(Cc1ccccc1)C(=O)O; ClAc = O=C(CCl)*

In the case of `O=C(CCl)NCC(=O)NC(Cc1ccccc1)C(=O)O` (stereo unspecified) (ClAc-Gly-[ξF]-OH), the T/C under setting [1] was 109 % of control, the T/C under setting [2] was 109 % of control and the T/C under setting [3] was 90 % of control.

For the compound `Cc1cc(C)c2nccc(/C=C/c3ccc(N(C)C)cc3)c2c1`, the T/C is 93 % of control under setting [4] and 103 % of control under setting [5].

Turning to `COc1ccc2c(=O)c3c(=O)c4c(=O)oc5ccccc5c4oc3oc2c1`, the T/C by setting is: under setting [4], 88 % of control; under setting [5], 88 % of control; under setting [6], 88 % of control.

Regarding `CC1(c2ccccc2)O[C@@H]2C[C@H]3[C@@H]4CCC5=CC(=O)C=C[C@]5(C)[C@@]4(F)[C@@H](O)C[C@]3(C)[C@]2(C(=O)CO)O1` (stereo partly specified), the T/C is, setting by setting: (dose: 50.0 mg/kg/injection, schedule: Q01DX009 (ip), vehicle: saline) 100 % of control; (dose: 100.0 mg/kg/injection, schedule: Q01DX009 (ip), vehicle: saline) 100 % of control; (dose: 132.0 mg/kg/injection, schedule: Q04DX003 (ip), vehicle: saline) 90 % of control and 95 % of control (2×); (dose: 200.0 mg/kg/injection, schedule: Q04DX003 (ip), vehicle: saline) 86 % of control and 95 % of control and 100 % of control; (dose: 300.0 mg/kg/injection, schedule: Q04DX003 (ip), vehicle: saline) 105 % of control; (dose: 400.0 mg/kg/injection, schedule: Q04DX003 (ip), vehicle: alcohol) 105 % of control.

`O=C(Nc1ccccc1F)Nc1cccc2ccccc12`: the T/C is 100 % of control under setting [7]; 100 % of control under setting [8]; 90 % of control (dose: 400.0 mg/kg/injection, schedule: Q01DX001 (ip), vehicle: saline with Tween-80).

As for `O=Cc1cc([N+](=O)[O-])ccc1Cl`, the T/C reads like this: under setting [1], 100 % of control; under setting [2], 96 % of control; under setting [3], 100 % of control.

In the case of `O=C(NCc1ccco1)C(=O)NCc1ccco1`, the T/C reads like this: under setting [4], 87 % of control; under setting [5], 90 % of control; under setting [6], 98 % of control.

As to `CCO/C=C1\SC(=S)N(Cc2ccccc2)C1=O`, the T/C is 86 % of control (dose: 12.5 mg/kg/injection, schedule: Q01DX009 (ip), vehicle: other); 109 % of control (dose: 25.0 mg/kg/injection, schedule: Q01DX009 (ip), vehicle: other); 118 % of control (dose: 44.0 mg/kg/injection, schedule: Q04DX003 (ip), vehicle: other); 100 % of control (dose: 44.0 mg/kg/injection, schedule: Q04DX003 (ip), vehicle: saline + alcohol); 118 % of control (dose: 44.0 mg/kg/injection, schedule: Q04DX003 (ip), vehicle: saline with Tween-80); 104 % of control (dose: 100.0 mg/kg/injection, schedule: Q04DX003 (ip), vehicle: saline + alcohol). The T/C was 154 % of control (dose: 150.0 mg/kg/injection, schedule: Q04DX003 (ip), vehicle: other); 95 % of control (dose: 150.0 mg/kg/injection, schedule: Q04DX003 (ip), vehicle: saline + alcohol); 116 % of control (dose: 150.0 mg/kg/injection, schedule: Q04DX003 (ip), vehicle: saline with Tween-80).

`COc1cc([N+](=O)[O-])c2c(ccc[n+]2C)c1OC`: the T/C was 100 % of control (dose: 50.0 mg/kg/injection, schedule: Q01DX001 (ip), vehicle: saline with Tween-80); 91 % of control under setting [7]; 112 % of control under setting [8].

With `CN1CCOP1OCC(F)(F)F` (stereo unspecified), the T/C by setting is: (dose: 25.0 mg/kg/injection, schedule: Q01DX005 (ip), vehicle: saline) 104 % of control; (dose: 50.0 mg/kg/injection, schedule: Q01DX005 (ip), vehicle: saline) 93 % of control; (dose: 100.0 mg/kg/injection, schedule: Q01DX005 (ip), vehicle: saline) 109 % of control.

On to `CCOC(=O)S(=O)(=O)c1ccc(C)cc1`, for which the T/C is 90 % of control under setting [9], 90 % of control under setting [10] and 115 % of control under setting [11].

Take `CC1(C)N=C(N)N=C(N)N1c1cccc(C#N)c1`: the T/C is, setting by setting: (dose: 22.0 mg/kg/injection, schedule: Q04DX003 (ip), vehicle: saline) 111 % of control and 118 % of control; (dose: 33.0 mg/kg/injection, schedule: Q04DX003 (ip), vehicle: saline) 122 % of control and 123 % of control; (dose: 50.0 mg/kg/injection, schedule: Q04DX003 (ip), vehicle: saline) 118 % of control and 123 % of control; (dose: 75.0 mg/kg/injection, schedule: Q04DX003 (ip), vehicle: saline) 95 % of control; (dose: 100.0 mg/kg/injection, schedule: Q04DX003 (ip), vehicle: saline) 116 % of control.

On to `CCOc1ccc2nc(S(N)(=O)=O)sc2c1`, for which the T/C is 114 % of control under setting [12]; 104 % of control under setting [13]; 114 % of control under setting [14]; 104 % of control under setting [15]; 109 % of control (dose: 400.0 mg/kg/injection, schedule: Q01DX009 (ip), vehicle: Klucel (hydroxypropylcellulose) (HPC)); 95 % of control under setting [16].

With `Cn1c([N+](=O)[O-])cnc1/C=N/N1CCN(/N=C/c2ncc([N+](=O)[O-])n2C)CC1`, the T/C is, setting by setting: under setting [4], 101 % of control; under setting [5], 113 % of control; under setting [6], 94 % of control.

`Cc1ccc(Cl)cc1NC(=O)c1ccccc1C(=O)O`: the T/C reads like this: under setting [13], 91 % of control; under setting [15], 95 % of control; under setting [16], 91 % of control.

Take `Brc1ccc(C[n+]2ccccc2)cc1`: the T/C was 91 % of control under setting [9]; 87 % of control under setting [10]; 95 % of control under setting [11]; 100 % of control (dose: 25.0 mg/kg/injection, schedule: Q04DX003 (ip), vehicle: saline).

Take `CCOC(=O)C1(C)C(=O)CC2c3nc4ccccc4cc3CN2C1=O` (stereo unspecified): the T/C is 100 % of control under setting [13], 100 % of control under setting [15] and 100 % of control under setting [16].

Consider `C=CC(=O)NC12CC3CC(CC(C3)C1)C2`, for which the T/C under setting [2] is 95 % of control and the T/C under setting [3] is 95 % of control.

Take `Cc1cccc(/C=N\OCc2ccccc2)n1`: the T/C is, setting by setting: under setting [2], 118 % of control; (dose: 132.0 mg/kg/injection, schedule: Q04DX003 (ip), vehicle: saline with Tween-80) 104 % of control; under setting [3], 100 % of control; (dose: 300.0 mg/kg/injection, schedule: Q04DX003 (ip), vehicle: saline with Tween-80) 108 % of control; under setting [17], 118 % of control.

Turning to `CCOC(=O)c1cc(/C=C/c2ccccc2)[nH]c(=O)c1C#N`, the T/C runs as follows: (dose: 25.0 mg/kg/injection, schedule: Q01DX009 (ip), vehicle: Klucel (hydroxypropylcellulose) (HPC)) 91 % of control; (dose: 50.0 mg/kg/injection, schedule: Q01DX009 (ip), vehicle: Klucel (hydroxypropylcellulose) (HPC)) 91 % of control; under setting [12], 95 % of control; under setting [13], 95 % of control; under setting [14], 92 % of control; under setting [15], 104 % of control. Moreover, the T/C under setting [16] is 104 % of control.

Take `COC1CC(OS(=O)(=O)c2ccc(C)cc2)C(O)C(C)O1` (stereo unspecified): the T/C is, setting by setting: under setting [4], 98 % of control and 97 % of control; under setting [5], 100 % of control and 109 % of control; under setting [2], 99 % of control; under setting [6], 96 % of control and 103 % of control; under setting [3], 97 % of control; under setting [17], 96 % of control.

Regarding `Cc1ccc(C2=C(Cl)C(=O)NC2=O)s1`, for the setting “dose: 12.5 mg/kg/injection, schedule: Q01DX001 (ip), vehicle: saline with Tween-80”, the T/C is 112 % of control.

For the origin of these results see PubChem BioAssay AID328 (DTP/NCI, 2004).
